Where “and” joins values, the source holds several entries; their conditions need not be identical. Identical values can stand only once. Like-named read-outs stand apart in the source and are kept apart here.
Tested on: PfCRT variant E207A
Assay: Drug uptake assay, oocytes expressing E207A
Assay type: cell-based, Plasmodium falciparum
Details: for Km: read-out: KM ± SEM
Description: Site-directed mutagenesis of PfCRT^Dd2 was performed as described using the megaprimer method with overlap extension[21],[54]. The primer pairs used are listed in Supplementary Table 6. Please note that a codon-optimized and oocyte-adapted version of PfCRT^Dd2 was used[22] (Supplementary Fig. 16). The resulting DNA fragment was cloned into the SP64T expression vector and verified by sequencing.
Oocytes were obtained as described previously. Briefly, adult (>2 years old) female X. laevis frogs (NASCO) were anesthetized in a cooled solution of ethyl 3-amino benzoate methanesulfonate (0.1%, w/v), followed by a surgical removal of parts of the ovary. The ovary lobes were carefully dissected and small pieces of oocytes were incubated in Ca^2+-free ND96 buffer (96 mM NaCl, 2 mM KCl, 1 mM MgCl2 buffered with 5 mM HEPES/NaOH, pH 7.5) supplemented with collagenase D (0.1%, w/v; Roche), BSA (0.5%, w/v), and 9 mm Na2HPO4 at 18 °C for 14-16 h while gentle shaking. After incubation, the oocytes were carefully washed several times with ND96 buffer (96 mM NaCl, 2 mM KCl, 1.8 mM CaCl2, 1 mM MgCl2 buffered with 5 mM HEPES/NaOH, pH 7.5) supplemented with 100 mg l^−1 gentamycin). Defolliculated and healthy-looking stage V-VI oocytes were manually selected for RNA microinjection. The RNA was generated as following: The codon-optimized sequences of PfCRT variants were cloned into the pSP64T expression vector. After vector linearization using the restriction endonucleases BamHI or SalI (New England Biolabs), transcription was performed using the in vitro SP6 mMessage mMachine Kit (Ambion)[34]. The obtained RNA was kept at −80 °C and diluted with nuclease-free water to a concentration of 0.6 μg μl^−1. Precision-bore glass capillary tubes (3.5-inch glass capillaries; Drummond Scientific Co.) were pulled on a vertical puller (P-87 Flaming/Brown micropipette puller, Sutter Instrument Co.), graduated, and placed on a microinjector (Nanoject II Auto-Nanoliter Injector, Drummond Scientific Co.). 50 nl of nuclease-free water alone (control oocytes) or 50 nl of 0.6 μg μl^−1 RNA were injected under stereomicroscopic control. Injected oocytes were incubated for 46–72 h at 18 °C with twice-daily buffer changes before usage in experiments.
Drug uptake assays were performed as described previously[21],[22],[24],[34]. […] The direction of radio-labeled drug transport is here from the mostly acidic extracellular solution (pH 4.5 or 6.0, as indicated) into the oocyte cytosol (pH ∼ 7.2), which corresponds to the efflux of drug from the acidic digestive vacuole (pH 5.2) into the parasite cytoplasm (pH 7.2). The topology of PfCRT in the oolemma is such that both the N- and C-terminus face the extracellular milieu[3],[22]. In the parasite, the N- and C-terminus face the lumen of the digestive vacuole. […] For determination of the amount of drug uptake for each oocyte, the reaction medium was removed and the oocytes were washed three times with 2 ml of ice-cold ND96 buffer. Each oocyte was individually transferred to a scintillation vial containing 5% sodium dodecyl sulfate (200 μl) for lysis. […] Oocytes that were injected with water instead of RNA were analyzed in parallel, representing the uptake of a drug by diffusion and/or endogenous permeation pathways. The resulting value represents the “background“ level of drug accumulation in oocytes (in-depth discussion in[22]). The specific PfCRT-mediated uptake was determined by subtracting the corresponding background value measured in water-injected oocytes from that of PfCRT-expressing oocytes. In all cases, at least three separate experiments were performed on oocytes from different frogs (biological replicate), and for each condition in an experiment, measurements were made from 10 oocytes per treatment. For pH 5.5, 6.0, and 6.5, ND96 was buffered with 5 mM MES/Tris base.

[1] = 50 µM CQ, 1 h, independent samples

For CCN(CC)CCCC(C)Nc1ccnc2cc(Cl)ccc12 (stereo not drawn) [CQ, chloroquine], the E207A transport activity (10 µM CQ, pH 4.5, 60 min) was 0.59 pmol oocyte-1 h-1 and 0.34 pmol oocyte-1 h-1 and 0.50 pmol oocyte-1 h-1, the E207A transport activity (10 µM CQ, pH 6.0, 60 min) was 0.34 pmol oocyte-1 h-1 and 0.28 pmol oocyte-1 h-1 and 0.55 pmol oocyte-1 h-1 and 0.40 pmol oocyte-1 h-1 and the “E207A transport activity pH 5.0” value [1] was 1.89 pmol oocyte-1 h-1 and 1.63 pmol oocyte-1 h-1. The “E207A transport activity pH 5.5” value [1] was 2.56 pmol oocyte-1 h-1 and 1.58 pmol oocyte-1 h-1 and 2.27 pmol oocyte-1 h-1, the E207A transport activity (100 µM CQ, pH 4.5, 60 min) was 4.66 pmol oocyte-1 h-1 and 5.17 pmol oocyte-1 h-1 and 4.25 pmol oocyte-1 h-1 and 5.82 pmol oocyte-1 h-1 and the E207A transport activity (100 µM CQ, pH 6.0, 60 min) was 3.91 pmol oocyte-1 h-1 and 5.58 pmol oocyte-1 h-1 and 5.27 pmol oocyte-1 h-1 and 3.70 pmol oocyte-1 h-1 and 4.07 pmol oocyte-1 h-1 and 4.29 pmol oocyte-1 h-1. The E207A transport activity (200 µM CQ, pH 4.5, 60 min) was 7.55 pmol oocyte-1 h-1 and 5.35 pmol oocyte-1 h-1 and 6.95 pmol oocyte-1 h-1 and 5.93 pmol oocyte-1 h-1, the E207A transport activity (200 µM CQ, pH 6.0, 60 min) was 5.60 pmol oocyte-1 h-1 and 6.08 pmol oocyte-1 h-1 and 5.00 pmol oocyte-1 h-1 and 8.09 pmol oocyte-1 h-1 and 6.01 pmol oocyte-1 h-1 and the E207A transport activity (300 µM CQ, pH 4.5, 60 min) was 7.51 pmol oocyte-1 h-1 and 7.97 pmol oocyte-1 h-1 and 7.66 pmol oocyte-1 h-1. For the same molecule, the E207A transport activity (300 µM CQ, pH 6.0, 60 min) was 7.48 pmol oocyte-1 h-1 and 7.35 pmol oocyte-1 h-1 and 8.15 pmol oocyte-1 h-1 and 7.49 pmol oocyte-1 h-1 and 7.22 pmol oocyte-1 h-1, the E207A transport activity (400 µM CQ, pH 4.5, 60 min) was 9.19 pmol oocyte-1 h-1 and 7.30 pmol oocyte-1 h-1 and 9.06 pmol oocyte-1 h-1 and the E207A transport activity (400 µM CQ, pH 6.0, 60 min) was 7.35 pmol oocyte-1 h-1 and 7.71 pmol oocyte-1 h-1 and 9.99 pmol oocyte-1 h-1 and 6.32 pmol oocyte-1 h-1 and 7.81 pmol oocyte-1 h-1. The E207A transport activity (500 µM CQ, pH 4.5, 60 min) was 6.87 pmol oocyte-1 h-1 and 8.11 pmol oocyte-1 h-1 and 8.95 pmol oocyte-1 h-1 and 9.82 pmol oocyte-1 h-1, the E207A transport activity (500 µM CQ, pH 6.0, 60 min) was 7.79 pmol oocyte-1 h-1 and 6.89 pmol oocyte-1 h-1 and 7.81 pmol oocyte-1 h-1 and 10.28 pmol oocyte-1 h-1 and 8.00 pmol oocyte-1 h-1 and the “transport activity at pH 6.0 compared with PfCRT^Dd2” value (E207A, 50 µM CQ) was 44%. For the same molecule, the “Vmax ± SEM” value (E207A, pH 4.5) was 11 ± 1 pmol h^−1 oocyte ^−1, the Km (E207A, pH 4.5) was 180 ± 30 µM and the “Vmax ± SEM” value (E207A, pH 6.0) was 11 ± 1 pmol h^−1 oocyte ^−1. The Km (E207A, pH 6.0) was 150 ± 30 µM, the “Activity at pH 6.0” value (E207A, 50 µM CQ, 1 h, mean ± SEM) was 2.24 ± 0.15 pmol h-1 oocyte-1 and the R-value (E207A, CQ transport at pH 4.5 / pH 6.0) was 0.9 and 0.89 ± 0.03. For the same molecule, the “E207A transport activity pH 4.5” value (pH 4.5, individual replicates (Fig 6a)) was 1.64 pmol oocyte-1 h-1 and 1.58 pmol oocyte-1 h-1 and 3.29 pmol oocyte-1 h-1 and 2.17 pmol oocyte-1 h-1 and 2.03 pmol oocyte-1 h-1 and 1.48 pmol oocyte-1 h-1 and 2.30 pmol oocyte-1 h-1 and 1.60 pmol oocyte-1 h-1, the “E207A transport activity pH 4.5” value (pH 4.5, individual replicates, Fig 6b) was 1.64 pmol oocyte-1 h-1 and 1.58 pmol oocyte-1 h-1 and 3.29 pmol oocyte-1 h-1 and 2.17 pmol oocyte-1 h-1 and 2.03 pmol oocyte-1 h-1 and 1.48 pmol oocyte-1 h-1 and 2.30 pmol oocyte-1 h-1 and 1.60 pmol oocyte-1 h-1 and the “E207A transport activity pH 4.5” value (pH 4.5, single replicates, Fig 1d left) was 1.64 pmol oocyte-1 h-1 and 1.58 pmol oocyte-1 h-1 and 3.29 pmol oocyte-1 h-1 and 2.17 pmol oocyte-1 h-1 and 2.03 pmol oocyte-1 h-1 and 1.48 pmol oocyte-1 h-1 and 2.30 pmol oocyte-1 h-1 and 1.60 pmol oocyte-1 h-1. The “E207A R-value” (pH 4.5 vs pH 6.0, Fig 1d left) was 0.81 and 1.04 and 1.03 and 0.85 and 0.93 and 0.99 and 0.74, the “E207A transport activity pH 6.0” value (pH 6.0, individual replicates (Fig 6a)) was 2.02 pmol oocyte-1 h-1 and 1.94 pmol oocyte-1 h-1 and 3.16 pmol oocyte-1 h-1 and 2.11 pmol oocyte-1 h-1 and 2.38 pmol oocyte-1 h-1 and 1.75 pmol oocyte-1 h-1 and 2.47 pmol oocyte-1 h-1 and 1.62 pmol oocyte-1 h-1 and 2.39 pmol oocyte-1 h-1 and the “E207A transport activity pH 6.0” value (pH 6.0, individual replicates, Fig 6b) was 2.02 pmol oocyte-1 h-1 and 1.94 pmol oocyte-1 h-1 and 3.16 pmol oocyte-1 h-1 and 2.11 pmol oocyte-1 h-1 and 2.38 pmol oocyte-1 h-1 and 1.75 pmol oocyte-1 h-1 and 2.47 pmol oocyte-1 h-1 and 1.62 pmol oocyte-1 h-1 and 2.39 pmol oocyte-1 h-1. For the same molecule, the “E207A transport activity pH 6.0” value (pH 6.0, single replicates, Fig 1d left) was 2.02 pmol oocyte-1 h-1 and 1.94 pmol oocyte-1 h-1 and 3.16 pmol oocyte-1 h-1 and 2.11 pmol oocyte-1 h-1 and 2.38 pmol oocyte-1 h-1 and 1.75 pmol oocyte-1 h-1 and 2.47 pmol oocyte-1 h-1 and 1.62 pmol oocyte-1 h-1 and 2.39 pmol oocyte-1 h-1, the “E207A R-value” (ratio of activity pH 4.5 / pH 6.0) was 0.81 and 1.04 and 1.03 and 0.85 and 0.93 and 0.99 and 0.74 and the “E207A R-value” (transport activity pH 4.5 relative to pH 6.0 (Fig 6a)) was 0.81 and 1.04 and 1.03 and 0.85 and 0.93 and 0.99 and 0.74.

— PMC10349806 (Nature Communications, 2023)
